Results: US20220280492A1, “THERAPEUTIC AGENT FOR CANCER HAVING RESISTANCE TO ANTI-CCR4 ANTIBODY” (DAIICHI SANKYO COMPANY, LIMITED, priority 2019, published 2022)

Experiments:
[1] = system: recurrent or refractory ATL patients; experiment: multicenter open-label phase I trial of the clinical compound in non-Hodgkin's lymphoma patients; ATL patients analyzed; type: in vivo, human; design: key to Determination of effect on lesion site: Peripheral blood image / Best overall effect / Determination of effect on lesion site: Nodular lesion / Determination of effect on lesion site: Extranodal lesion: CR: Complete Remission; CRu: Uncertified Complete Remission; PR: Partial Remission; SD: Stable Disease; PD: Progressive Disease; NE: Not Evaluable
Protocol: Clinical trials which administer the clinical compound to patients with non-Hodgkin's lymphoma were carried out. ATL patients of the non-Hodgkin's lymphoma patients receiving the clinical compound were analyzed.
The clinical trial is a multicenter open-label phase I trial for the purpose of studying, e.g., safety, tolerability, pharmacokinetics and anti-tumor effect, by administering the clinical compound to patients with recurrent or refractory non-Hodgkin's lymphoma (no standard treatment is established or refractory or intolerant to a standard treatment) including ATL patients. […] In this manner, dose-limiting toxicity and recommended dose for the next phase are determined in the clinical trial.
The clinical compound was orally administered to individual test subjects once a day for consecutive days until unacceptable toxicity or disease progression was confirmed. […] The anti-tumor effect was observed principally, at intervals of 8 weeks, and evaluated based on “Definition, prognostic factors, treatment, and response criteria of adult T-cell leukemia-lymphoma: a proposal from an international consensus meeting” (J Clin Oncol. 2009; 27[3]: 453-9).
The dose of the first cohort was determined to be 150 mg/time/day based on the results of a nonclinical study. The dose of the next cohort was determined by comprehensively evaluating the dose recommended by the modified continual reassessment method (mCRM) based on information of the presence or absence of dose-limited toxicity and all safety data (including adverse event except dose limiting toxicity and abnormal laboratory test values), pharmacokinetics, biomarkers, and effectiveness data obtained up to the time point, and discussing with a sponsors, investigators and external experts.
The dosage amount of the clinical compound was in advance determined per cohort. As the clinical compound, two types of capsules different in dose were provided in combination. As the administration method, oral administration once a day was carried out for consecutive days.
The therapeutic effect on ATL was determined based on “Definition, prognostic factors, treatment, and response criteria of adult T-cell leukemia-lymphoma: a proposal from an international consensus meeting” (J Clin Oncol. 2009; 27[3]: 453-9). Before initiation of the clinical trial, necessary examinations, which were selected from CT scan, bone marrow examination, endoscopic inspection and blood test in accordance with the disease state of the test subject, were carried out to determine a target lesion. A change in the lesion was assessed principally at intervals of 8 weeks.

[2] = system: ATL patients with a history of treatment with the anti-CCR4 antibody mogamulizumab; details: phase II trials; cited from earlier work
[3] = ATL patient No. 1, 150 mg oral once a day, treatment history: mogamulizumab present, lenalidomide present
[4] = ATL patient No. 2, 150 mg oral once a day, treatment history: mogamulizumab present, no lenalidomide
[5] = ATL patient No. 9, 200 mg oral once a day, treatment history: no mogamulizumab, lenalidomide present

SMILES | median value of PFS ([1]; 9 recurrent or refractory ATL patients) | Best overall effect [1, 3] | Determination of effect on lesion site: Extranodal lesion [1, 3] | Determination of effect on lesion site: Nodular lesion [1, 3] | Best overall effect [1, 4] | Determination of effect on lesion site: Extranodal lesion [1, 4] | Determination of effect on lesion site: Nodular lesion [1, 4] | Best overall effect [1, 5] | Determination of effect on lesion site: Peripheral blood image [1, 5] | patients evaluated as SD ([1]; of 6 patients with a history of treatment with mogamulizumab) | responders ([1]; of 6 patients with a history of treatment with mogamulizumab (CRu: 1 patient, PR: 2 patients)) | response rate ([1]; recurrent or refractory ATL patients evaluable for effectiveness, 4 out of 9 patients [CRu: 1, PR: 3], 95%CI 13.7 to 78.8, intermediate data, oral once a day) | disease control rate (percentage of patients exerting an effect of SD or more) ([1]; recurrent or refractory ATL patients, 7 out of 9 patients, intermediate data) | response rate [2]
Cc1cc(C)c(CNC(=O)c2cc(Cl)c3c(c2C)O[C@@](C)([C@H]2CC[C@H](N(C)C)CC2)O3)c(=O)[nH]1.Cc1ccc(S(=O)(=O)O)cc1 [clinical compound, (2R)-7-chloro-2-[trans-4-(dimethylamino)cyclohexyl]-N-[(4,6-dimethyl-2-oxo-1,2-dihydropyridin-3-yl)methyl]-2,4-dimethyl-1,3-benzodioxol-5-carboxamide p-toluenesulfonate] | 16.1 weeks | PD | PD | PD | PR | PR | Cru | PR | PR | 2 patients | 3 patients | 44.4% | 77.8% | –
Nc1cccc2c1CN(C1CCC(=O)NC1=O)C2=O (centres unmarked) [lenalidomide] | – | – | – | – | – | – | – | – | – | – | – | – | – | about 18%
